# Laboratory results taken from patent US20210353693A1, “Live Biotherapeutics to Treat and Prevent Lung Conditions” (priority 2018, published 2021).
# Test system: LH1
# Assay: ETEST antibiotic sensitivity of LH1
# Format: cell-based
# Conditions: 24 h, read-out: Susceptible to
row,Compound,MIC [µg/mL]
1,CC[C@H]1OC(=O)[C@H](C)[C@@H](O[C@H]2C[C@@](C)(OC)[C@@H](O)[C@H](C)O2)[C@H](C)[C@@H](O[C@@H]2O[C@H](C)C[C@H](N(C)C)[C@H]2O)[C@](C)(OC)C[C@@H](C)C(=O)[C@H](C)[C@@H](O)[C@]1(C)O [Clarithromycin],0.16

# Same assay, conditions: ETEST, LH1, 24-hours anaerobic incubation
Compound,Resistant to [µg/mL],Susceptible to [µg/mL]
NCC[C@H](O)C(=O)N[C@@H]1C[C@H](N)[C@@H](O[C@H]2O[C@H](CN)[C@@H](O)[C@H](O)[C@H]2O)[C@H](O)[C@H]1O[C@H]1O[C@H](CO)[C@@H](O)[C@H](N)[C@H]1O [Amikacin],48,
"O=C(O)c1cn(C2CC2)c2cc(N3CCNCC3)c(F)cc2c1=O [Ciprofloxacin), Ciprofloxacin]",32,
C[C@H]1COc2c(N3CCN(C)CC3)c(F)cc3c(=O)c(C(=O)O)cn1c23 [Levofloxacin],12,
CCN1CCN(C(=O)N[C@@H](C(=O)N[C@@H]2C(=O)N3[C@@H]2SC(C)(C)[C@@H]3C(=O)O)c2ccccc2)C(=O)C1=O [Piperacillan],,0.19
NC[C@H]1O[C@H](O[C@H]2[C@H](O)[C@@H](O[C@H]3O[C@H](CO)[C@@H](O)[C@H](N)[C@H]3O)[C@H](N)C[C@@H]2N)[C@H](N)C[C@@H]1O [Tobramycin],>512,
Amoxicillin/Clavulanic Acid,,0.125
Trimethoprim/Sulfamethoxazole,32,

# Same assay, conditions: ETEST, LH1, 24-hours anaerobic incubation; read-out: Susceptible to
row,Compound,MIC [µg/mL]
1,C[C@H]1[C@H](NC(=O)/C(=N\OC(C)(C)C(=O)O)c2csc(N)n2)C(=O)N1S(=O)(=O)O [Aztreonam],2
2,CC[C@H]1OC(=O)[C@H](C)[C@@H](O[C@H]2C[C@@](C)(OC)[C@@H](O)[C@H](C)O2)[C@H](C)[C@@H](O[C@@H]2O[C@H](C)C[C@H](N(C)C)[C@H]2O)[C@](C)(O)C[C@@H](C)C(=O)[C@H](C)[C@@H](O)[C@]1(C)O [Erythromycin],0.023
3,C[C@@H](O)[C@H]1C(=O)N2C(C(=O)O)=C(SCCN=CN)C[C@H]12 [Imipenem],0.094
4,CC(=O)NC[C@H]1CN(c2ccc(N3CCOCC3)c(F)c2)C(=O)O1 [Linezolid],0.5
5,CO[C@H]1/C=C/O[C@@]2(C)Oc3c(C)c(O)c4c(O)c(c(/C=N/N5CCN(C)CC5)c(O)c4c3C2=O)NC(=O)/C(C)=C\C=C\[C@H](C)[C@H](O)[C@@H](C)[C@@H](O)[C@@H](C)[C@H](OC(C)=O)[C@@H]1C [Rifampicin],0.125
6,CN(C)[C@@H]1C(O)=C(C(N)=O)C(=O)[C@@]2(O)C(O)=C3C(=O)c4c(O)cccc4[C@@](C)(O)[C@H]3C[C@@H]12 [Tetracycline],0.5
7,CN[C@H](CC(C)C)C(=O)N[C@H]1C(=O)N[C@@H](CC(N)=O)C(=O)N[C@H]2C(=O)N[C@H]3C(=O)N[C@H](C(=O)N[C@H](C(=O)O)c4cc(O)cc(O)c4-c4cc3ccc4O)[C@H](O)c3ccc(c(Cl)c3)Oc3cc2cc(c3O[C@@H]2O[C@H](CO)[C@@H](O)[C@H](O)[C@H]2O[C@H]2C[C@](C)(N)[C@H](O)[C@H](C)O2)Oc2ccc(cc2Cl)[C@H]1O [Vancomycin],1.5
